Results published in patent US20240150362A1, “Substituted Pyrrolotriazines” (Molecure S.A., priority 2022, published 2024).
Where a name gives a salt, the structure may show the parent alone.

Each molecule was assayed against T1, full-length USP7 (Homo sapiens, UniProt Q93009) (assay: Enzymatic assay to determine IC50 of USP7 inhibitors (Ubiquitin-Rhodamine 110 cleavage)). Details: full-length USP7 0.5-1.0 nM, 0.5 μM Ubiquitin-Rhodamine 110, 30-60 min at 25° C.
T1 construct: A 45 μl reaction volume containing full-length USP7 (0.5-1.0 nM)
T1 sequence (Q93009 whole entry): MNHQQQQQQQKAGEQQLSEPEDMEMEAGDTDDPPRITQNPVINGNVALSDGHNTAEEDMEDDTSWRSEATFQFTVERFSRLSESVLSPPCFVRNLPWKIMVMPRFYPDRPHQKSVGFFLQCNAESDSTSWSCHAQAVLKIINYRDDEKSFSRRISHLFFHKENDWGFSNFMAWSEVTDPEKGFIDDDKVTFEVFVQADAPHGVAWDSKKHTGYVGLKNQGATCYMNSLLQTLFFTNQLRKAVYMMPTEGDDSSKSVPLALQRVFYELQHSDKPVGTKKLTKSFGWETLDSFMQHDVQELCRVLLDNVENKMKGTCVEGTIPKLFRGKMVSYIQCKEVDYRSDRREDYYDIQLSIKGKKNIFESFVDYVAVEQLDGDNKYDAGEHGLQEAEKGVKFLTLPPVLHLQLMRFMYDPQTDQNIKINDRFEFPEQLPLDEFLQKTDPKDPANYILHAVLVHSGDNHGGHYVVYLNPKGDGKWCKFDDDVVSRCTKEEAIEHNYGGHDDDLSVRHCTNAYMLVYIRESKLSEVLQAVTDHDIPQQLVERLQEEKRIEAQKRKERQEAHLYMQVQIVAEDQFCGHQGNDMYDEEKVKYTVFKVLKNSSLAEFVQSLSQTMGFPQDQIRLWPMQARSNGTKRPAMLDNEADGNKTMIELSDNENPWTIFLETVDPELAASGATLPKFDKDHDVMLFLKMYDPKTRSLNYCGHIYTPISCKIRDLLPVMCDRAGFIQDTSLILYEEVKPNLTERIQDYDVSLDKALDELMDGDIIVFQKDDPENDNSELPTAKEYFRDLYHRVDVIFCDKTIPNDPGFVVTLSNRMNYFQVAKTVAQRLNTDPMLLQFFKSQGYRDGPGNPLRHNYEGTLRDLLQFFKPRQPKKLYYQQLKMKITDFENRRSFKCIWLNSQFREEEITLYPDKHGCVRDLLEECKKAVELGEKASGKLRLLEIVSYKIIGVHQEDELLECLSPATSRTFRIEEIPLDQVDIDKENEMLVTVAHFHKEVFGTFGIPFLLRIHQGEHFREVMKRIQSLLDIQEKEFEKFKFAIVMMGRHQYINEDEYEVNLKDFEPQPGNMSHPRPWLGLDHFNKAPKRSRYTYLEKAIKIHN
Format: biochemical
Method: Enzymatic Assay to Determine IC50 of USP7 Inhibitors
The IC50 is the concentration of an inhibitor where the measured enzyme activity is reduced by half. In the case of USP7 deubiquitinase, the IC50 of an USP7 inhibitor is the molar concentration of the compound that inhibits 50% of the activity observed in a USP7-mediated-ubiquitin-rhodamine cleavage assay. For the inhibitors disclosed herein, their potency was measured using the following method.
(§1) A 45 μl reaction volume containing full-length USP7 (0.5-1.0 nM) in 50 mM HEPES pH 7.5, 150 mM NaCl, 2 mM DTT, 1 mg/ml BSA and 0.05% Tween20 was assembled in wells of 96 well half area black flat bottom plates. Test compounds were first dissolved to 30 mM stocks in DMSO and subsequently introduced to enzyme 15 min after USP7 incubation with DTT at room temperature. The enzymatic reaction was started by adding 0.5 μM Ubiquitin-Rhodamine 110 (final concentration) and allowed to proceed for 30-60 min at 25° C., 250 RPM shaking before Rhodamine fluorescence (485 nm excitation/535 nm emission) was measured using Tecan Spark M10 plate reader. The IC50 values were determined by data fitting to variable slope model four-parameter dose-response curve using GraphPad 7.05.
`Cc1cc(Cl)cc(-c2ncnn3cc(CN4C(=O)C5C(C4=O)C5(C)C)cc23)c1CC1CNCC2(CC2)O1` (racemic) [Example 46, 3-((4-(2-((4-oxa-7-azaspiro[2.5]octan-5-yl)methyl)-5-chloro-3-methylphenyl)pyrrolo[2,1-f][1,2,4]triazin-6-yl)methyl)-6,6-dimethyl-3-azabicyclo[3.1.0]hexane-2,4-dione hydrochloride] gave an IC50 of under 500 nM. For `Cc1cc(Cl)cc(-c2ncnn3cc(CN4C(=O)C5C(C4=O)C5(C)C)cc23)c1CC1CNCC(C)(C)O1` (racemic) [Example 50, 3-((4-(5-chloro-2-((6,6-dimethylmorpholin-2-yl)methyl)-3-methylphenyl)pyrrolo[2,1-f][1,2,4]triazin-6-yl)methyl)-6,6-dimethyl-3-azabicyclo[3.1.0]hexane-2,4-dione hydrochloride], the IC50 was under 500 nM.

Each molecule was assayed against T1, full-length USP7 (assay: Enzymatic assay to determine % inhibition of USP7 activity at 1 μM test compound (Ubiquitin-Rhodamine 110 cleavage)). Details: 1 μM of the test compound; given where IC50 has not been determined yet; mean of two repetitions.
Format: biochemical
Method: Enzymatic Assay to Determine % Value of Inhibition […] Activity at 1 μM […]
as §1, with “Tween20 (DUB assay buffer)” for “Tween20”, “All test” for “Test”, “temperature. The final concentration of tested compounds was 1 μM.” for “temperature.”, “Percentage of inhibition at 1 μM was” for “The IC50 values were”, “the mean of two repetitions for these concentrations” for “data fitting to variable slope model four-parameter dose-response curve”, “Microsoft Excel software.” for “GraphPad 7.05.”
Molecule `Cc1cc(Cl)cc(-c2ncnn3cc(CN4C(=O)C5C(C4=O)C5(C)C)cc23)c1C1=CCNCC1` (centres unmarked) [Example 84, 3-((4-(5-chloro-3-methyl-2-(1,2,3,6-tetrahydropyridin-4-yl)phenyl)pyrrolo[2,1-f][1,2,4]triazin-6-yl)methyl)-6,6-dimethyl-3-azabicyclo[3.1.0]hexane-2,4-dione hydrochloride] has an inhibition at 1 µM of under 20%. Work on `CC1(C)C2C(=O)N(Cc3cc4c(-c5cc(Cl)ccc5N5CCNCC5)ncnn4c3)C(=O)C21` (centres unmarked) [Example 85, 3-((4-(5-chloro-2-(piperazin-1-yl)phenyl)pyrrolo[2,1-f][1,2,4]triazin-6-yl)methyl)-6,6-dimethyl-3-azabicyclo[3.1.0]hexane-2,4-dione hydrochloride] yielded an inhibition at 1 µM of under 20%. In the case of `CC1(C)C2C(=O)N(Cc3cc4c(-c5cc(Cl)ccc5N5CC[C@H](N)C5)ncnn4c3)C(=O)C21` (stereo partly drawn) [Example 86, 3-((4-(2-((S)-3-aminopyrrolidin-1-yl)-5-chlorophenyl)pyrrolo[2,1-f][1,2,4]triazin-6-yl)methyl)-6,6-dimethyl-3-azabicyclo[3.1.0]hexane-2,4-dione hydrochloride], the inhibition at 1 µM is reported as 20 to 49%. Molecule `CC1(C)C2C(=O)N(Cc3cc4c(-c5cc(Cl)ccc5N5CC[C@@H](N)C5)ncnn4c3)C(=O)C21` (stereo partly drawn) [Example 87, 3-((4-(2-((R)-3-aminopyrrolidin-1-yl)-5-chlorophenyl)pyrrolo[2,1-f][1,2,4]triazin-6-yl)methyl)-6,6-dimethyl-3-azabicyclo[3.1.0]hexane-2,4-dione hydrochloride] has an inhibition at 1 µM of 20 to 49%. With `Cc1cc(Cl)cc(-c2ncnn3cc(Cn4c(=O)ccn(C)c4=O)cc23)c1C1=CCNCC1` [Example 88, 3-((4-(5-chloro-3-methyl-2-(1,2,3,6-tetrahydropyridin-4-yl)phenyl)pyrrolo[2,1-f][1,2,4]triazin-6-yl)methyl)-1-methylpyrimidine-2,4(1H,3H)-dione hydrochloride] the inhibition at 1 µM was under 20%. Work on `CC1(C)C2C(=O)N(Cc3cc4c(-c5cc(Cl)ccc5N5C[C@H]6CCN[C@H]6C5)ncnn4c3)C(=O)C21` (stereo partly drawn) [Example 90, 3-((4-(5-chloro-2-((3aR,6aR)-hexahydropyrrolo[3,4-b]pyrrol-5(1H)-yl)phenyl)pyrrolo[2,1-f][1,2,4]triazin-6-yl)methyl)-6,6-dimethyl-3-azabicyclo[3.1.0]hexane-2,4-dione hydrochloride] yielded an inhibition at 1 µM of 50 to 70%. In the case of `CC1(C)C2C(=O)N(Cc3cc4c(-c5cc(Cl)ccc5N5CCC6(CCCN6)C5)ncnn4c3)C(=O)C21` (centres unmarked) [Example 91, 3-((4-(5-chloro-2-(1,7-diazaspiro[4.4]nonan-7-yl)phenyl)pyrrolo[2,1-f][1,2,4]triazin-6-yl)methyl)-6,6-dimethyl-3-azabicyclo[3.1.0]hexane-2,4-dione hydrochloride], the inhibition at 1 µM is reported as 20 to 49%. `CC1(C)C2C(=O)N(Cc3cc4c(-c5cc(Cl)cc6c5N(C5CCNC5)CC5CC65)ncnn4c3)C(=O)C21` (centres unmarked) [Example 92, 3-((4-(6-chloro-3-(pyrrolidin-3-yl)-1a,2,3,7b-tetrahydro-1H-cyclopropa[c]quinolin-4-yl)pyrrolo[2,1-f][1,2,4]triazin-6-yl)methyl)-6,6-dimethyl-3-azabicyclo[3.1.0]hexane-2,4-dione hydrochloride] showed an inhibition at 1 µM of 50 to 70%. In the case of `CC1(C)C2C(=O)N(Cc3cc4c(-c5cc(Cl)ccc5N5C[C@@H]6CCN[C@@H]6C5)ncnn4c3)C(=O)C21` (stereo partly drawn) [Example 96, 3-((4-(5-chloro-2-((3aS,6aS)-hexahydropyrrolo[3,4-b]pyrrol-5(1H)-yl)phenyl)pyrrolo[2,1-f][1,2,4]triazin-6-yl)methyl)-6,6-dimethyl-3-azabicyclo[3.1.0]hexane-2,4-dione hydrochloride], the inhibition at 1 µM is reported as under 20%. `CC1(C)C2C(=O)N(Cc3cc4c(-c5cc(Cl)ccc5N5CC6CNCC6C5)ncnn4c3)C(=O)C21` (centres unmarked) [Example 97, 3-((4-(5-chloro-2-(hexahydropyrrolo[3,4-c]pyrrol-2(1H)-yl)phenyl)pyrrolo[2,1-f][1,2,4]triazin-6-yl)methyl)-6,6-dimethyl-3-azabicyclo[3.1.0]hexane-2,4-dione hydrochloride] showed an inhibition at 1 µM of under 20%. Molecule `Cc1cc(Cl)cc(-c2ncnn3cc(CN4C(=O)C5C(C4=O)C5(C)C)cc23)c1CN1CCC2(CC1)CNC2` (centres unmarked) [Example 102, 3-((4-(2-((2,7-diazaspiro[3.5]nonan-7-yl)methyl)-5-chloro-3-methylphenyl)pyrrolo[2,1-f][1,2,4]triazin-6-yl)methyl)-6,6-dimethyl-3-azabicyclo[3.1.0]hexane-2,4-dione hydrochloride] has an inhibition at 1 µM of 20 to 49%. For `CN[C@H]1CCCN(c2ccc(Cl)cc2-c2ncnn3cc(CN4C(=O)C5C(C4=O)C5(C)C)cc23)C1` (stereo partly drawn) [Example 112, 3-((4-(5-chloro-2-((S)-3-(methylamino)piperidin-1-yl)phenyl)pyrrolo[2,1-f][1,2,4]triazin-6-yl)methyl)-6,6-dimethyl-3-azabicyclo[3.1.0]hexane-2,4-dione hydrochloride], the inhibition at 1 µM was 50 to 70%. `Cn1ccc(=O)n(Cc2cc3c(-c4cc(Cl)cc(F)c4CC4CNCCO4)ncnn3c2)c1=O` (centres unmarked) [Example 116, 3-((4-(5-chloro-3-fluoro-2-(morpholin-2-ylmethyl)phenyl)pyrrolo[2,1-f][1,2,4]triazin-6-yl)methyl)-1-methylpyrimidine-2,4(1H,3H)-dione hydrochloride] was tested, and the inhibition at 1 µM was 50 to 70%. For `Cc1cc(Cl)cc(-c2ncnn3cc(Cn4c(=O)ccn(C)c4=O)cc23)c1CC1CNC[C@H](C)O1` (stereo partly drawn) [Example 122, 3-((4-(5-chloro-3-methyl-2-(((6S)-6-methylmorpholin-2-yl)methyl)phenyl)pyrrolo[2,1-f][1,2,4]triazin-6-yl)methyl)-1-methylpyrimidine-2,4(1H,3H)-dione dihydrochloride], the inhibition at 1 µM was 20 to 49%. `O=c1cc[nH]c(=O)n1Cc1cc2c(-c3cc(Cl)cc4ccn(CC5(F)CCNCC5)c34)nc(Cl)nn2c1` [Example 123, 3-((2-chloro-4-(5-chloro-1-((4-fluoropiperidin-4-yl)methyl)-1H-indol-7-yl)pyrrolo[2,1-f][1,2,4]triazin-6-yl)methyl)pyrimidine-2,4(1H,3H)-dione hydrochloride] gave an inhibition at 1 µM of under 20%. With `CC(C)n1ccc(=O)n(Cc2cc3c(-c4cc(Cl)cc5ccn(CC6(F)CCNCC6)c45)ncnn3c2)c1=O` [Example 127, 3-((4-(5-chloro-1-((4-fluoropiperidin-4-yl)methyl)-1H-indol-7-yl)pyrrolo[2,1-f][1,2,4]triazin-6-yl)methyl)-1-isopropylpyrimidine-2,4(1H,3H)-dione hydrochloride] the inhibition at 1 µM was over 70%. `Cc1cc(F)cc(-c2ncnn3cc(Cn4c(=O)ccn(C)c4=O)cc23)c1CC1CNC[C@H](C)O1` (stereo partly drawn) [Example 128, 3-((4-(5-fluoro-3-methyl-2-(((6S)-6-methylmorpholin-2-yl)methyl)phenyl)pyrrolo[2,1-f][1,2,4]triazin-6-yl)methyl)-1-methylpyrimidine-2,4(1H,3H)-dione hydrochloride] gave an inhibition at 1 µM of 20 to 49%. For `Cc1nc(C(F)(F)F)cc(-c2ncnn3cc(Cn4c(=O)ccn(C)c4=O)cc23)c1OC1CCCNC1` (centres unmarked) [Example 129, 1-methyl-3-((4-(2-methyl-3-(piperidin-3-yloxy)-6-(trifluoromethyl)pyridin-4-yl)pyrrolo[2,1-f][1,2,4]triazin-6-yl)methyl)pyrimidine-2,4(1H,3H)-dione hydrochloride], the inhibition at 1 µM was under 20%.
